≈ marks a conversion by molar mass, not a printed value. Read-outs that look alike come from different tables or passages of the source.
What was measured:
E. coli strain DRC39 = assay: Combination anti-bacterial treatment at sub-MIC concentrations, growth of DRC39; type: cell-based; settings: for reduction of the MIC when combined with sub-MIC 26E-10: DRC39
Procedure: Cell growth was assessed by visual inspection of cells incubated in culture tubes in this experiment and in the second, third, and fourth experiments described in this Example. In the fifth experiment growth was measured by reading optical density (OD600) using a multiwell plate reader. Cells were inoculated at a low concentration (1-2×10^5 cells/ml), such that the medium appeared clear.

FtsZ GTPase activity = FtsZ GTPase activity (Escherichia coli, UniProt P0A9A6); settings: at the concentrations tested
[1] = tested on: E. coli DRC39 (ΔacrAB::kan); settings: for MIC: E. coli DRC39 (ΔacrAB::kan), MIC99, broth dilution
[2] = tested on: FtsZ ring assembly in E. coli DRC39 cells; assay: FtsZ ring assembly in vivo (FtsZ-GFP fluorescence microscopy) in DRC39 cells; type: cell-based
FtsZ protofilaments = FtsZ protofilaments (Escherichia coli, UniProt P0A9A6); settings: for effect on FtsZ polymers (class of inhibitor): electron micrographs, FIGS. 13-15
[3] = tested on: gram-negative and gram-positive bacteria; assay: Antibacterial activity against gram-negative and gram-positive bacteria; type: cell-based
Procedure: FIG. 19 is a table illustrating the minimum inhibitory concentrations of FtsZ GTPase inhibitory compounds identified in vitro. The compounds were tested against a variety of gram-negative and gram-positive bacteria.

Clostridium perfringens = type: cell-based
DRC40/pBR-ftsZ+ cells = assay: MIC and growth/phenotype, DRC40 with wild-type ftsZ in trans; type: cell-based, E. coli
B. cereus = assay: Killing of B. cereus; type: cell-based
[4] = tested on: E. coli DRC42 (DRC39 recA::cat); assay: MIC, E. coli DRC42
[5] = tested on: E. coli MC1000 (wild-type); assay: MIC, broth dilution, E. coli MC1000; settings: MIC99, broth dilution
[6] = tested on: E. coli DRC40 (DRC39 ftsZ84); assay: MIC and growth/phenotype, E. coli DRC40
[7] = biological target: M. tuberculosis FtzZ (FtsZMt) GTPase (Mycobacterium tuberculosis, UniProt P9WN95); assay: Malachite green-phosphomolybdate assay of FtsZ GTPase activity (M. tuberculosis FtsZ); type: biochemical; settings: 5 min preincubation at 30° C., 1 mM GTP, averages from three determinations
M. tuberculosis FtzZ (FtsZMt) GTPase, sequence (P9WN95 whole entry): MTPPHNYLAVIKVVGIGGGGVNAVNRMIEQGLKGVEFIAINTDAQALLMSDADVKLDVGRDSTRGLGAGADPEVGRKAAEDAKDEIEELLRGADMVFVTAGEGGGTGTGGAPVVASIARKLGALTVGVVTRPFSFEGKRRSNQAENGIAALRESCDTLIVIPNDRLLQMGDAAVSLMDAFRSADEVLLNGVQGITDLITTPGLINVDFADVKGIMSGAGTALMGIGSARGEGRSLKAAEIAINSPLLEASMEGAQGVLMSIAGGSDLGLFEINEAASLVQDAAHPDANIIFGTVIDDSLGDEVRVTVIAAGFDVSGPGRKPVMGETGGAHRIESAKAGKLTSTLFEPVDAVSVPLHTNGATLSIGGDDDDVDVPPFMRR

FtsZ GTPase activity, sequence (P0A9A6 whole entry): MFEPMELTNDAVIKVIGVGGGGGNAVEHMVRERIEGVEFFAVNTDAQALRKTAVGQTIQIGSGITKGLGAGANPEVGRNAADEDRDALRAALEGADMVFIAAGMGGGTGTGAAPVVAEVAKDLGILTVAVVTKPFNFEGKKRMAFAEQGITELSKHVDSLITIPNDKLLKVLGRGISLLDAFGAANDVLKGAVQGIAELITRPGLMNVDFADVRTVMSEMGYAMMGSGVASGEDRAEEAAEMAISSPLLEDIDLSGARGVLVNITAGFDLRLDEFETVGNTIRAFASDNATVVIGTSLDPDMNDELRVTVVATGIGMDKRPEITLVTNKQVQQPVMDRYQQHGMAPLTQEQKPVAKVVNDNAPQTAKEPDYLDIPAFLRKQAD
FtsZ protofilaments, sequence (P0A9A6 whole entry): as above

SMILES: CCN1C(=Cc2ccc3ccccc3[n+]2CC)C=Cc2ccccc21.[Cl-] [3G-09]
- amount of growth relative to the absence of compound (E. coli strain DRC39; alone, 0.375 μM, OD600): 92%
- growth inhibition (E. coli strain DRC39; alone, 0.375 μM, OD600): 8%
- effect on FtsZ GTPase activity in vitro (FtsZ GTPase activity): apparently do not affect FtsZ GTPase activity
- MIC [1]: 6 µM

SMILES: Nc1c(C=Cc2cc3cc(C4=NCCN4)ccc3o2)[nH]c2cc(C3=NCCN3)ccc12 [58P-18]
- FtsZ ring in treated cells ([2]; 40 μM, DRC39 cells): none of the treated cells appear to contain a medial FtsZ ring
- time to start of cell elongation ([2]; 40 μM, DRC39 cells): ≤ 60 min
- reduction of the MIC when combined with sub-MIC 26E-10 (E. coli strain DRC39): ≥ 2 fold
- effect on FtsZ GTPase activity in vitro (FtsZ GTPase activity): inhibit FtsZ GTPase activity
- effect on FtsZ GTPase activity in vitro (FtsZ GTPase activity; listed as 58-P18): reproducibly and robustly inhibited FtsZ GTPase activity
- effect on FtsZ polymers (class of inhibitor) (FtsZ protofilaments): cause bundling of FtsZ protofilaments
- MIC [1]: 80 µM (≈ 32.8 µg/mL)

SMILES: Oc1ccc(Cl)cc1Cc1cc(Cl)cc(Cc2cc(Cl)ccc2O)c1O [27D-12]
- activity against gram positive and gram negative bacteria [3]: effective against gram positive bacteria at very low concentrations and also kills gram negative species
- effect on FtsZ GTPase activity in vitro (FtsZ GTPase activity): inhibit FtsZ GTPase activity
- effect on FtsZ GTPase activity in vitro (FtsZ GTPase activity; listed as 27-D12): reproducibly and robustly inhibited FtsZ GTPase activity
- effect on FtsZ polymers (class of inhibitor) (FtsZ protofilaments): dose dependent destabilizing effect on the polymers
- MIC [1]: 20 µM (≈ 8.19 µg/mL)

SMILES: CC[n+]1ccc(/C=C/N(C)c2ccccc2)c2ccccc21.[I-] [26E-10]
- phenotype and growth (Clostridium perfringens; 80 μM, anaerobic conditions): filamentation phenotype in the presence of 80 μM 26E-10 without any overt effect on cell growth
- phenotype (Clostridium perfringens; Clostridium perfringens): filaments
- cell density and filamentation versus DRC40/pBR322 (DRC40/pBR-ftsZ+ cells; DRC40/pBR-ftsZ+, 5 μM): higher cell density and less pronounced filamentation
- MIC (DRC40/pBR-ftsZ+ cells; DRC40 with wild-type ftsZ provided in trans (pBR-ftsZ+)): 10 µM
- cell length (filamentation) ([2]; 10 μM (MIC), DRC39, within 60 min of treatment): ~4 ×
- Z-rings in elongated cells ([2]; 10 μM, DRC39, 60 min): markedly reduced in number and diminished in intensity
- Z-rings after 90 min treatment ([2]; DRC39, 90 min): most of the cells were devoid of distinct Z-rings
- amount of growth relative to the absence of compound (E. coli strain DRC39; singly, 5 μM, OD600): 41%
- growth inhibition (E. coli strain DRC39; singly, 5 μM, OD600): 59%
- killing of B. cereus (B. cereus): efficiently killed
- growth and morphology ([1]; DRC39, 5 μM, 30° C.): mixture of filaments of varying lengths and short cells present at a low density
- MIC [1]: 10 µM
- MIC [4]: 10 µM
- MIC [5]: >40 µM
- growth ([6]; DRC40/pBR322, 5 μM, 30° C.): absolutely no growth
- MIC ([6]; E. coli DRC40 (DRC39 ftsZ84), slight turbidity believed to be unlysed filaments): 2.5 µM

SMILES: C=CCOc1c(Br)cc(S(=O)(=O)c2cc(Br)c(O)c(Br)c2)cc1Br [18M-04]
- IC50 [7]: > 100 µM
- activity against gram positive and gram negative bacteria [3]: kills gram positives
- effect on FtsZ GTPase activity in vitro (FtsZ GTPase activity): reproducibly and robustly inhibited FtsZ GTPase activity
- effect on FtsZ protofilament assembly in vitro (FtsZ protofilaments): destabilizers of FtsZ protofilament assembly
- effect on FtsZ polymers (class of inhibitor) (FtsZ protofilaments): dose dependent destabilizing effect on the polymers

SMILES: CC[n+]1c(/C=C/N(C)c2ccccc2)n(-c2ccccc2)c2ccc(-c3nc4ccccc4s3)cc21 [27F-02]
- IC50 [7]: 70 µM
- reduction of the MIC when combined with sub-MIC 26E-10 (E. coli strain DRC39): 5 fold
- effect on FtsZ GTPase activity in vitro (FtsZ GTPase activity): inhibit FtsZ GTPase activity
- effect on FtsZ GTPase activity in vitro (FtsZ GTPase activity; listed as 27-F02): reproducibly and robustly inhibited FtsZ GTPase activity
- effect on FtsZ protofilament assembly in vitro (FtsZ protofilaments): destabilizers of FtsZ protofilament assembly
- effect on FtsZ polymers (class of inhibitor) (FtsZ protofilaments): cause bundling of FtsZ protofilaments
- MIC [1]: 5 µM

SMILES: CCN(CC)CCNc1nc(C=Cc2ccc(Cl)cc2)nc2cc3ccccc3cc12 [16L-09]
- reduction of the MIC when combined with sub-MIC 26E-10 (E. coli strain DRC39): 4 fold
- effect on FtsZ GTPase activity in vitro (FtsZ GTPase activity): inhibit FtsZ GTPase activity
- effect on FtsZ GTPase activity in vitro (FtsZ GTPase activity; listed as 16-L09): reproducibly and robustly inhibited FtsZ GTPase activity
- effect on FtsZ polymers (class of inhibitor) (FtsZ protofilaments): cause bundling of FtsZ protofilaments
- MIC [1]: 10 µM (≈ 4.31 µg/mL)

SMILES: CCN1C(=Cc2ccc3c4ccccc4ccc3[n+]2CC)C=Cc2ccccc21.Cc1ccc(S(=O)(=O)[O-])cc1 [7N-12]
- amount of growth relative to the absence of compound (E. coli strain DRC39; individually, 0.3 μM): 98%
- growth inhibition (E. coli strain DRC39; individually, 0.3 μM): 2%
- effect on FtsZ GTPase activity in vitro (FtsZ GTPase activity): inhibit FtsZ GTPase activity

Source: patent publication US7575889B2, “Compound combinations for inhibiting cell division and methods for their identification and use” (President and Fellows of Harvard College, priority 2001, dated 2009)
